Experimental data published in ChEMBL document CHEMBL3046083, “Synthesis, characterization and antimicrobial evaluation of novel derivatives of isoniazid” (2012).
Converted amounts (≈) assume the structure as drawn.

What was measured:
Assay type in all cases: functional
Nakaseomyces glabratus [1] = assay: Antimicrobial activity against Candida glabrata ATCC 10233 by broth dilution method
Candida albicans [2] = assay: Antimicrobial activity against Candida albicans ATCC 10231 by broth dilution method
Escherichia coli [3] = assay: Antimicrobial activity against Escherichia coli ATCC 25922 after 24 hr by broth dilution method; conditions: ATCC 25922, 24 h
Pseudomonas aeruginosa [4] = assay: Antimicrobial activity against Pseudomonas aeruginosa ATCC […] after 24 hr by broth dilution method
Staphylococcus aureus [5] = assay: Antimicrobial activity against Staphylococcus aureus ATCC 29213 after 24 hr by broth dilution method; conditions: ATCC 29213, 24 h
Bacillus subtilis [6] = assay: Antimicrobial activity against Bacillus subtilis ATCC […] after 24 hr by broth dilution method
Nakaseomyces glabratus [7] = assay: Antimicrobial activity against Candida glabrata ATCC 10233 at 100 ug/ml after 24 to 48 hr by agar diffusion method; conditions: read-out: DIZ
Candida albicans [8] = assay: Antimicrobial activity against Candida albicans ATCC 10231 at 100 ug/ml after 24 to 48 hr by agar diffusion method; conditions: read-out: DIZ
Escherichia coli [9] = assay: Antimicrobial activity against Escherichia coli ATCC 25922 at 100 ug/ml after 24 to 48 hr by agar diffusion method; conditions: read-out: DIZ
Pseudomonas aeruginosa [10] = assay: Antimicrobial activity against Pseudomonas aeruginosa ATCC […] at 100 ug/ml after 24 to 48 hr by agar diffusion method; conditions: read-out: DIZ
Staphylococcus aureus [11] = assay: Antimicrobial activity against Staphylococcus aureus ATCC 29213 at 100 ug/ml after 24 to 48 hr by agar diffusion method; conditions: read-out: DIZ
Bacillus subtilis [12] = assay: Antimicrobial activity against Bacillus subtilis ATCC […] at 100 ug/ml after 24 to 48 hr by agar diffusion method; conditions: read-out: DIZ
Escherichia coli [13] = assay: Antimicrobial activity against Escherichia coli ATCC 25922 at 50 ug/ml after 24 to 48 hr by agar diffusion method; conditions: read-out: DIZ
Pseudomonas aeruginosa [14] = assay: Antimicrobial activity against Pseudomonas aeruginosa ATCC […] at 50 ug/ml after 24 to 48 hr by agar diffusion method; conditions: read-out: DIZ
Staphylococcus aureus [15] = assay: Antimicrobial activity against Staphylococcus aureus ATCC 29213 at 50 ug/ml after 24 to 48 hr by agar diffusion method; conditions: read-out: DIZ
Bacillus subtilis [16] = assay: Antimicrobial activity against Bacillus subtilis ATCC […] at 50 ug/ml after 24 to 48 hr by agar diffusion method; conditions: read-out: DIZ

Row | Compound | MFC (Nakaseomyces glabratus [1]) [µg/mL] | MIC (Nakaseomyces glabratus [1]) [µg/mL] | MIC50 (Nakaseomyces glabratus [1]) [µg/mL] | MFC (Candida albicans [2]) [µg/mL] | MIC (Candida albicans [2]) [µg/mL] | MIC50 (Candida albicans [2]) [µg/mL] | MIC (Escherichia coli [3]) [µg/mL] | MIC50 (Escherichia coli [3]) [µg/mL] | MIC (Pseudomonas aeruginosa [4]) [µg/mL] | MIC50 (Pseudomonas aeruginosa [4]) [µg/mL] | MIC (Staphylococcus aureus [5]) [µg/mL] | MIC50 (Staphylococcus aureus [5]) [µg/mL] | MIC (Bacillus subtilis [6]) [µg/mL] | MIC50 (Bacillus subtilis [6]) [µg/mL] | zone of inhibition at 100 µg/mL (Nakaseomyces glabratus [7]) [mm] | zone of inhibition at 100 µg/mL (Candida albicans [8]) [mm] | zone of inhibition at 100 µg/mL (Escherichia coli [9]) [mm] | zone of inhibition at 100 µg/mL (Pseudomonas aeruginosa [10]) [mm] | zone of inhibition at 100 µg/mL (Staphylococcus aureus [11]) [mm] | zone of inhibition at 100 µg/mL (Bacillus subtilis [12]) [mm] | further results
1 | CCOc1c(/C=N\NC(=O)c2ccncc2)cccc1CN1CCCCC1 | 100 (≈ 273 µM) | 12.5 (≈ 34.1 µM) | 12.8 (≈ 34.9 µM) | 100 (≈ 273 µM) | 12.5 (≈ 34.1 µM) | 12.8 (≈ 34.9 µM) | 12.5 (≈ 34.1 µM) | 6.4 (≈ 17.5 µM) | 12.5 (≈ 34.1 µM) | 6.4 (≈ 17.5 µM) | 12.5 (≈ 34.1 µM) | 6.4 (≈ 17.5 µM) | 25 (≈ 68.2 µM) | 12.8 (≈ 34.9 µM) | 16 | 16 | 25 | 20 | 25 | 23 | –
2 | CCOc1c(/C=N\NC(=O)c2ccncc2)cccc1CN(C)C | 100 (≈ 306 µM) | 25 (≈ 76.6 µM) | 25.6 (≈ 78.4 µM) | 100 (≈ 306 µM) | 25 (≈ 76.6 µM) | 12.8 (≈ 39.2 µM) | 25 (≈ 76.6 µM) | 12.8 (≈ 39.2 µM) | 25 (≈ 76.6 µM) | 12.8 (≈ 39.2 µM) | 25 (≈ 76.6 µM) | 12.8 (≈ 39.2 µM) | 50 (≈ 153 µM) | 12.8 (≈ 39.2 µM) | 14 | 13 | 20 | 15 | 21 | 17 | –
3 | NYSTATIN | 25 | 12.5 | 6.4 | 12.5 | 6.25 | 3.2 | – | – | – | – | – | – | – | – | – | – | – | – | – | – | –
4 | CCOc1c(/C=N\NC(=O)c2ccncc2)cccc1CN1CCCC1 | 100 (≈ 284 µM) | 12.5 (≈ 35.5 µM) | 12.8 (≈ 36.3 µM) | 25 (≈ 70.9 µM) | 12.5 (≈ 35.5 µM) | 6.4 (≈ 18.2 µM) | 6.25 (≈ 17.7 µM) | 3.2 (≈ 9.08 µM) | 12.5 (≈ 35.5 µM) | 6.4 (≈ 18.2 µM) | 12.5 (≈ 35.5 µM) | 6.4 (≈ 18.2 µM) | 25 (≈ 70.9 µM) | 12.8 (≈ 36.3 µM) | 19 | 18 | 27 | 20 | 26 | 22 | –
5 | CCOc1ccccc1/C=N\NC(=O)c1ccncc1 | 100 (≈ 371 µM) | 25 (≈ 92.8 µM) | 25.6 (≈ 95.1 µM) | 50 (≈ 186 µM) | 50 (≈ 186 µM) | 25.6 (≈ 95.1 µM) | 50 (≈ 186 µM) | 25.6 (≈ 95.1 µM) | 25 (≈ 92.8 µM) | 12.8 (≈ 47.5 µM) | 25 (≈ 92.8 µM) | 12.8 (≈ 47.5 µM) | 50 (≈ 186 µM) | 25.6 (≈ 95.1 µM) | 11 | 13 | 18 | 14 | 19 | 15 | –
6 | CCOc1c(/C=N\NC(=O)c2ccncc2)cccc1CN(CC)CC | 100 (≈ 282 µM) | 25 (≈ 70.5 µM) | 25.6 (≈ 72.2 µM) | 25 (≈ 70.5 µM) | 25 (≈ 70.5 µM) | 12.8 (≈ 36.1 µM) | 25 (≈ 70.5 µM) | 12.8 (≈ 36.1 µM) | 25 (≈ 70.5 µM) | 12.8 (≈ 36.1 µM) | 25 (≈ 70.5 µM) | 12.8 (≈ 36.1 µM) | 25 (≈ 70.5 µM) | 12.8 (≈ 36.1 µM) | 14 | 15 | 20 | 16 | 21 | 19 | –
7 | CCCCN(CCCC)Cc1cccc(/C=N\NC(=O)c2ccncc2)c1OCC | 100 (≈ 244 µM) | 12.5 (≈ 30.4 µM) | 12.8 (≈ 31.2 µM) | 100 (≈ 244 µM) | 25 (≈ 60.9 µM) | 12.8 (≈ 31.2 µM) | 12.5 (≈ 30.4 µM) | 6.4 (≈ 15.6 µM) | 12.5 (≈ 30.4 µM) | 6.4 (≈ 15.6 µM) | 12.5 (≈ 30.4 µM) | 6.4 (≈ 15.6 µM) | 25 (≈ 60.9 µM) | 12.8 (≈ 31.2 µM) | 15 | 15 | 24 | 19 | 23 | 21 | –
8 | CCOc1c(/C=N\NC(=O)c2ccncc2)cccc1CN(c1ccccc1)c1ccccc1 | 50 (≈ 111 µM) | 12.5 (≈ 27.7 µM) | 12.8 (≈ 28.4 µM) | 25 (≈ 55.5 µM) | 12.5 (≈ 27.7 µM) | 6.4 (≈ 14.2 µM) | 6.25 (≈ 13.9 µM) | 3.2 (≈ 7.1 µM) | 12.5 (≈ 27.7 µM) | 6.4 (≈ 14.2 µM) | 6.25 (≈ 13.9 µM) | 3.2 (≈ 7.1 µM) | 12.5 (≈ 27.7 µM) | 6.4 (≈ 14.2 µM) | 22 | 21 | 32 | 22 | 31 | 26 | –
9 | CCOc1c(/C=N\NC(=O)c2ccncc2)cccc1CN1CCN(C)CC1 | 50 (≈ 131 µM) | 12.5 (≈ 32.8 µM) | 12.8 (≈ 33.6 µM) | 25 (≈ 65.5 µM) | 12.5 (≈ 32.8 µM) | 6.4 (≈ 16.8 µM) | 6.25 (≈ 16.4 µM) | 3.2 (≈ 8.39 µM) | 12.5 (≈ 32.8 µM) | 6.4 (≈ 16.8 µM) | 6.25 (≈ 16.4 µM) | 3.2 (≈ 8.39 µM) | 12.5 (≈ 32.8 µM) | 6.4 (≈ 16.8 µM) | 20 | 22 | 32 | 22 | 33 | 26 | –
10 | CC1(C)S[C@@H]2[C@H](NC(=O)[C@H](N)c3ccc(O)cc3)C(=O)N2[C@H]1C(=O)O [AMOXICILLIN] | – | – | – | – | – | – | 3.12 (≈ 8.54 µM) | 1.6 (≈ 4.38 µM) | 6.25 (≈ 17.1 µM) | 3.2 (≈ 8.76 µM) | 3.12 (≈ 8.54 µM) | 1.62 (≈ 4.43 µM) | 6.25 (≈ 17.1 µM) | 3.2 (≈ 8.76 µM) | – | – | – | – | – | – | zone of inhibition at 50 µg/mL (Escherichia coli [13]): 30 mm; zone of inhibition at 50 µg/mL (Pseudomonas aeruginosa [14]): 21 mm; zone of inhibition at 50 µg/mL (Staphylococcus aureus [15]): 30 mm; zone of inhibition at 50 µg/mL (Bacillus subtilis [16]): 25 mm
11 | CCCN(CCC)Cc1cccc(/C=N\NC(=O)c2ccncc2)c1OCC | 100 (≈ 261 µM) | 12.5 (≈ 32.7 µM) | 12.8 (≈ 33.5 µM) | 50 (≈ 131 µM) | 25 (≈ 65.4 µM) | 12.8 (≈ 33.5 µM) | 12.5 (≈ 32.7 µM) | 6.4 (≈ 16.7 µM) | 12.5 (≈ 32.7 µM) | 6.4 (≈ 16.7 µM) | 25 (≈ 65.4 µM) | 6.4 (≈ 16.7 µM) | 25 (≈ 65.4 µM) | 12.8 (≈ 33.5 µM) | 15 | 15 | 22 | 18 | 22 | 21 | –
12 | CCOc1c(/C=N\NC(=O)c2ccncc2)cccc1CN1CCNCC1 | 50 (≈ 136 µM) | 12.5 (≈ 34 µM) | 12.8 (≈ 34.8 µM) | 25 (≈ 68 µM) | 12.5 (≈ 34 µM) | 6.4 (≈ 17.4 µM) | 6.25 (≈ 17 µM) | 3.2 (≈ 8.71 µM) | 12.5 (≈ 34 µM) | 6.4 (≈ 17.4 µM) | 3.12 (≈ 8.49 µM) | 3.2 (≈ 8.71 µM) | 12.5 (≈ 34 µM) | 6.4 (≈ 17.4 µM) | 23 | 24 | 33 | 23 | 34 | 27 | –
13 | CCOc1c(/C=N\NC(=O)c2ccncc2)cccc1CN1CCOCC1 | 50 (≈ 136 µM) | 12.5 (≈ 33.9 µM) | 12.8 (≈ 34.7 µM) | 25 (≈ 67.9 µM) | 12.5 (≈ 33.9 µM) | 6.4 (≈ 17.4 µM) | 6.25 (≈ 17 µM) | 3.2 (≈ 8.69 µM) | 12.5 (≈ 33.9 µM) | 6.4 (≈ 17.4 µM) | 6.25 (≈ 17 µM) | 3.2 (≈ 8.69 µM) | 12.5 (≈ 33.9 µM) | 6.4 (≈ 17.4 µM) | 21 | 21 | 31 | 22 | 32 | 27 | –
